We go through 46 molecules from ChEMBL document CHEMBL1126551, “Three-dimensional quantitative structure-activity relationships of 5-HT receptor binding data for tetrahydropyridinylindole derivatives: a comparison of the Hansch and CoMFA methods” (J Med Chem, 1993).

For this test, the target named is T1, 5-hydroxytryptamine receptor 1A (Rattus norvegicus, UniProt P19327).
T1 sequence (P19327 whole entry): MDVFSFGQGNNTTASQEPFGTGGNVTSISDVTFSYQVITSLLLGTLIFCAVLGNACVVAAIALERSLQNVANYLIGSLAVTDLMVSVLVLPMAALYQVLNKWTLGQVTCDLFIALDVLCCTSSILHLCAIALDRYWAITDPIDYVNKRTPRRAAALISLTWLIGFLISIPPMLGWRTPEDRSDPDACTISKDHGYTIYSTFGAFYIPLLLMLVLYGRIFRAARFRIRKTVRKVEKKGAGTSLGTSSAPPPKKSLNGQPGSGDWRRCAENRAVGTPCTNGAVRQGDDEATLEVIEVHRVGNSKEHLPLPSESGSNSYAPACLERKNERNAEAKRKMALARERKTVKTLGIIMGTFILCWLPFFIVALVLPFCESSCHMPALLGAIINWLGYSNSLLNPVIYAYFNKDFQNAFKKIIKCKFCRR
Description: Binding affinity towards 5-hydroxytryptamine 1A receptor using [3H]8-OH-DPAT as radioligand.

Consider `CN1CC=C(c2c[nH]c3ccc([Si](C)(C)C)cc23)CC1`, for which the affinity, expressed as Ki, was 165 nM.

As for `COc1ccc2[nH]cc(C3CCN(C)CC3)c2c1`, affinity was put at a Ki of 138 nM.

For the molecule `CCN1CC=C(c2c[nH]c3ccc(C(=O)OC)cc23)CC1`, the Ki – broadly, a dissociation constant, usually derived from enzyme kinetics or from competition with a known ligand – was 384 nM.

Regarding `CCCN1CC=C(c2c[nH]c3ccc(OC)cc23)CC1`, the inhibition constant Ki is 363 nM.

The molecule `CCOC(=O)c1ccc2[nH]cc(C3=CCN(C)CC3)c2c1` had a Ki of 36.1 nM.

`CC(=O)Nc1ccc2[nH]cc(C3=CCN(C)CC3)c2c1` gave a Ki of 77.6 nM.

As to `CN1CC=C(c2c[nH]c3ccccc23)CC1`, the affinity, expressed as Ki, was 146 nM.

As to `CN1CC=C(c2c[nH]c3ccc(O)cc23)CC1`, affinity was put at a Ki of 61.7 nM.

`CN1CC=C(c2c[nH]c3ccc(N4C(=O)c5ccccc5C4=O)cc23)CC1` showed a Ki of 377 nM.

Turning to `CN1CC=C(c2c[nH]c3ccc(-c4ccccn4)cc23)CC1`, the inhibitory constant (Ki) is 25.1 nM.

As to `CCCN1CC=C(c2c[nH]c3ccccc23)CC1`, the inhibitory constant (Ki) was 556 nM.

In turn, `CN1CC=C(c2c[nH]c3ccc(-c4ccc(F)cc4)cc23)CC1` showed a Ki of 69 nM.

`CN1CC=C(c2c[nH]c3ccc(NS(C)(=O)=O)cc23)CC1` gave a Ki of 692 nM.

Turning to `CN1CC=C(c2c[nH]c3ccc(Br)cc23)CC1`, the affinity corresponds to a Ki of 11 nM.

As for `CN1CC=C(c2c[nH]c3ccc(-c4cccs4)cc23)CC1`, the Ki is 19 nM.

In the case of `COC(=O)c1ccc2[nH]cc(C3=CCN(C)CC3)c2c1`, the inhibition constant (Ki) was 19.4 nM.

Consider `C1=C(c2c[nH]c3ccccc23)CCNC1`, for which the inhibitory constant (Ki) is 189 nM.

The molecule `CC(=O)Oc1ccc2[nH]cc(C3=CCN(C)CC3)c2c1` showed a Ki of 81.3 nM.

In turn, `CC(O)c1ccc2[nH]cc(C3=CCN(C)CC3)c2c1` (stereo unspecified) showed a Ki of 221 nM.

For the molecule `CN1CC=C(c2c[nH]c3ccc([S+](C)[O-])cc23)CC1` (stereo unspecified), the affinity, expressed as Ki, was 105 nM.

In the case of `CCCN1CC=C(c2c[nH]c3ccc(C(N)=O)cc23)CC1`, the affinity, expressed as Ki, was 17 nM.

`CC(=O)c1ccc2[nH]cc(C3=CCN(C)CC3)c2c1`: the inhibition constant (Ki) is 23 nM.

Molecule `CCCN1CC=C(c2c[nH]c3ccc(C#N)cc23)CC1` gave a Ki of 303 nM.

`CN1CC=C(c2cn(Cc3ccccc3)c3ccccc23)CC1`: affinity was put at a Ki of 10000 nM.

Molecule `CN1CC=C(c2c[nH]c3ccc(-c4ccncc4)cc23)CC1` showed a Ki of 74.1 nM.

For the molecule `CN1CC=C(c2c[nH]c3ccc(Cl)cc23)CC1`, the Ki is 189 nM.

Consider `O=[N+]([O-])c1ccc2[nH]cc(C3=CCNCC3)c2c1`, for which the affinity corresponds to a Ki of 64.6 nM.

Take `CN1CC=C(c2c[nH]c3ccc(OCc4ccccc4)cc23)CC1`: the Ki was 111 nM.

As for `CN1CC=C(c2c[nH]c3ccc(C(N)=O)cc23)CC1`, affinity was put at a Ki of 5.3 nM.

`CN1CC=C(c2c[nH]c3ccc([N+](=O)[O-])cc23)CC1` gave a Ki of 21.1 nM.

Molecule `CN1CC=C(c2c[nH]c3ccc(C#N)cc23)CC1` had a Ki of 55 nM.

For the molecule `CN1CC=C(c2c[nH]c3ccc(-c4ccccc4)cc23)CC1`, the Ki was 55 nM.

As to `COc1ccc2[nH]c(C)c(C3=CCN(C)CC3)c2c1`, the Ki was 345 nM.

Molecule `C1=C(c2c[nH]c3ccccc23)CCN(Cc2ccccc2)C1` gave an inhibitory constant (Ki) of 923 nM.

`COc1ccc2[nH]cc(C3=CCN(C)CC3)c2c1` showed an inhibition constant Ki of 21.1 nM.

As to `CN1CC=C(c2c[nH]c3ccc(C(C)(C)O)cc23)CC1`, the Ki is 187 nM.

With `CCCN1CC=C(c2c[nH]c3ccc(NC(C)=O)cc23)CC1`, the inhibitory constant (Ki) was 37 nM.

`CN1CC=C(c2c[nH]c3ccc(CO)cc23)CC1` showed a Ki of 126 nM.

`CSc1ccc2[nH]cc(C3=CCN(C)CC3)c2c1` had an inhibitory constant (Ki) of 23 nM.

For `CN1CC=C(c2c[nH]c3ccc(S(C)(=O)=O)cc23)CC1`, the Ki was 188 nM.

`CN1CCC(c2c[nH]c3ccccc23)(c2c[nH]c3ccccc23)CC1` showed an inhibition constant Ki of 550 nM.

In the case of `CN1CC=C(c2c[nH]c3ccc(C4OCCO4)cc23)CC1`, the inhibition constant (Ki) is 87.9 nM.

The molecule `CN1CCC(c2c[nH]c3ccccc23)CC1` had a Ki of 513 nM.

`CN1CC=C(c2c[nH]c3ccc(-c4ccsc4)cc23)CC1` had an inhibition constant Ki of 25.1 nM.

As to `Cc1ccc2[nH]cc(C3=CCN(C)CC3)c2c1`, the inhibition constant Ki is 146 nM.

As for `CN1CC=C(c2c[nH]c3ccc(-c4cccnc4)cc23)CC1`, the affinity, expressed as Ki, was 200 nM.
